US20170066797A1, “WITHAFERIN A ANALOGS AND USES THEREOF” (Whitehead Institute for Biomedical Research, priority 2008, published 2017)

System: rat spinal cord motor neurons
Test: Neurotrophic factor (BDNF) deprivation-induced apoptosis of spinal cord motor neurons
Type: cell-based
Conditions: for reduction in cell death of motor neurons plated in the absence of BDNF: 24 hours, calcein-A
Description: FIGS. 12A-12D. Neuronal survival and increase in neurite length as assessed by calcein-A staining which is taken up by viable neurons. (A) In the absence of BDNF (−BDNF) there is approximately 40% reduction in viable motor neurons compared to wells with BDNF present (+BDNF). Addition of withaferin A (WA) to the motor neuron cultures plated in the absence of BDNF results in a 50% reduction in cell death at 200 nM (0.2 μM) concentration of WA and a 75% reduction in cell death at 400 nM (0.4 μM) as assessed after 24 hours. […] (B) Graph showing percent protection. (C) Motor neuron viability assay of WA. (D) WA increases neurite length (normalized to control) measured at the end of the experiment.
Neurotrophic factor deprivation-induced apoptosis of rat spinal cord motor neurons was used as a model system to evaluate neuroprotective activity of withaferin A. Primary spinal cord motor neurons were purified from E15 rats. These cells were dissociated from the ventral spinal cord, enriched by density gradient centrifugation, and purified by magnetic bead cell separation using an antibody against p75NTR which is expressed on the cell surface of motor neurons at this developmental age. The resulting cultures are ˜96% motor neurons as assessed by HB9 or islet-1 immunoreactivity and are virtually devoid of astrocytes or microglia. For viability experiments, the cells were plated at a low density (500 cells/well of a 96-well plate). In these cultures, motor neuron survival is highly dependent on trophic factors added to the culture media (in the form of BDNF, GDNF, or cardiotrophin-1), as ˜50% of the attached cells will undergo apoptosis when deprived of trophic factors (Oppenheim, R. W., et al., Nature, 360: 755-757; Henderson, C. E., et al., Science, 266: 1062-1064, 1994). BDNF was used as the trophic factor.
Neuronal survival was assessed by staining with calcein-A, a fluorescent dye that is taken up by viable neurons. […]
In some experiments, a fluorescence image of the entire well within a plate was captured using a flash cytometer (Trophos). […]

## CC1=C(CO)C(=O)OC([C@@H](C)C2CCC3C4C[C@H]5O[C@]56[C@@H](O)C=CC(=O)[C@]6(C)C4CC[C@@]32C)C1 (stereo partly drawn) [Withaferin A]
200 nM (0.2 μM)
  reduction in cell death of motor neurons plated in the absence of BDNF: 50%
400 nM (0.4 μM)
  reduction in cell death of motor neurons plated in the absence of BDNF: 75%
FIG. 12D
  neurite growth of motor neurons: induces the growth of neurites
